Results: patent publication US5118791A, “Biologically active polypeptides based on transforming growth factor-β” (Genentech, Inc., priority 1991, dated 1992)
Where no end group is shown, it is not given here.

Tests used:
Format in all cases: cell-based
[1] = tested on: Mu-1-Lv (ATCC CCL 64) mink lung epithelial-like cell; test: Inhibition of proliferation of cultured mink lung cells (3H-thymidine incorporation); details: CCL-64 mink lung cells, 24 hours, FIG. 1
Experimental: The cell line Mu-1-Lv (ATCC CCL 64, Rockville, MD), a mink lung epithelial-like cell, was used to detect TGF-β activity. Mul-1-Lv cells maintained by weekly passage in vitro in CMEM consisting of Eagle's minimum essential medium supplemented with 0.1 mM nonessential amino acids, 2 mM L-glutamine, 1 MM sodium pyruvate (Gibco, Grand Island, NY), and 10% heat-inactivated fetal bovine serum (FBC; HyClone Laboratoris, Logan, UT) were placed into 96-well flat-bottom microtiter plates (10,000/well; Falcon 3075) at a final volume of 200 μl/well. The plates were incubated at 37° C.+5% CO2 for 24 hours. During the last 4 hours of culture, 1 μCi of {3H} thymidine (20 μl/well, 5.0 Ci/mmol; Amersham Corp.) was added. After labeling, 100 μl/well of 10 x Trypsin-EDTA was added per well and the plates were incubated for an additional 15 min. at 37° C. Cells were harvested onto glass filters and counted in a liquid scintillation counter (LS 6800, Beckman, Fullerton, CA). Results (pg/ml of TGF-β) were calculated based on percent inhibition of thymidine incorporation compared with a rHuTGF-β1 laboratory standard.

[2] = tested on: human lymphocytes; test: Inhibition of human lymphocyte proliferation in response to tetanus toxoid; details: tetanus toxoid 2 LF units/ml, six days, dose-dependent, FIG. 4
Experimental: The medium employed was complete RPMI-1640, i.e., RPMI-1640 (Gibco) supplemented with 10% human pooled AB serum (Hazelton Biologics Inc., Lenexa, KS), 100 u/ml penicillin/100 μg/ml streptomycin, 2 mM L-glutamine (Gibco), 1 mM sodium pyruvate (Gibco), 1% MEM non-essential amino acids (Gibco, 100x), 25 mM HEPES (Gibco), and 1% Nutridoma (Boehringer Manheim).
Heparinized venous blood (10 u/ml; bovine lung, Upjohn) was mixed with an equal volume of isotonic saline. Approximately 30 ml of the diluted blood was layered over 15 ml of lymphocyte separation medium (LSM, Organon Technika) in […] conical polypropylene centrifuge tubes (Falcon Plastics). The tubes were centrifuged for 40 min. at 400× g at 22° C. […]
To each of sextuplicate wells of a 96-well flat-bottom microtiter plate (Falcon Plastics) was added 100 μl of the cell suspension. […] The filter discs were dried and suspended in 2 ml of liquid scintillation cocktail (Econofluor, New England Nuclear) in mini-scintillation vials and incorporated radioactivity was determined by liquid scintillation spectrophotometry. Data were expressed as mean counts per min. of the quadruplicate samples, where the cpm of the media control was substrated from the cpm of the stimulated sample.

[3] = tested on: human lymphocytes; test: Inhibition of human lymphocyte proliferation in response to PHA-P; details: PHA-P 1 μg/ml, three days, dose-dependent, FIG. 6
[4] = tested on: human lymphocytes; test: Inhibition of human lymphocyte proliferation in response to PMA; details: PMA 40 ng/ml, three days, dose-dependent, FIG. 5

Row | Substance | cpm incorporated (activity) as a function of the reciprocal of dilution [1] | inhibition of proliferation of human lymphocytes in response to tetanus toxoid [2] | inhibition of proliferation of human lymphocytes in response to PHA-P [3] | inhibition of proliferation of human lymphocytes in response to PMA [4]
1 | CVRQLYIDFRKDLGWK [free polypeptide] | comparable, i.e., low at the low dilution level and high at the high dilution levels |  |  | 
2 | TGF-β1: mature, full-length transforming growth factor-β1 |  | also exhibits this dose-dependent effect | also exhibits this dose-dependent effect | also exhibits this dose-dependent effect
